Source: patent publication US20260092071A1, “COMPOUNDS AND COMPOSITIONS AS SMARCA2/4 DEGRADERS AND USES THEREOF” (REGENTS OF THE UNIVERSITY OF MICHIGAN, priority 2022, published 2026)
Read-outs that look alike come from different tables or passages of the source.

Legend:
SMARCA4 = SMARCA4 (Homo sapiens, UniProt P51532); test: HiBit assay in engineered HT1080 CRISPR knock-in cell, 6 hrs (B series), SMARCA4; type: cell-based; conditions: for DC50 / SMARC A4 HT1080 HiBit Dmax(%): HT1080 CRISPR knock-in cells; for DC50: read-out: SMARC A4 HT1080 HiBit DC50
In short: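 Engineered HT1080 knock-in cells, 2000 cells/well, 6 hrs compound exposure, 37° C/5% CO2, 0.1% DMSO final. Lytic detection: LgBiT 1:100 plus HiBiT substrate 1:50 in lytic buffer, 10 min shake at RT, luminescence read.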

SMARCA2 = SMARCA2 (Homo sapiens, UniProt P51531); test: HiBit assay in engineered HT1080 CRISPR knock-in cell, 6 hrs (B series), SMARCA2; type: cell-based; conditions: 6 hrs incubation; for DC50 / SMARC A2 HT1080 HiBit Dmax (%): HT1080 CRISPR knock-in cells; for DC50: read-out: SMARC A2 HT1080 HiBit DC50; for Dmax: HT-1080, HT1080 CRISPR knock-in cells, read-out: SMARC A2 HT1080 HiBit Dmax (%)
In short: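 HT1080 CRISPR knock-in cells carrying the HiBiT tag were seeded onto compounds (final DMSO 0.1%) and incubated 6 hrs at 37° C, 5% CO2. Remaining tagged protein was detected by lytic HiBiT luminescence after adding LgBiT protein and substrate, with LgBiT-free wells serving as negative control.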

[1] = HT-1080, HT1080 CRISPR knock-in cells, 6 hrs incubation, read-out: SMARC A4 HT1080 HiBit Dmax(%)

SMARCA2, sequence (P51531 whole entry): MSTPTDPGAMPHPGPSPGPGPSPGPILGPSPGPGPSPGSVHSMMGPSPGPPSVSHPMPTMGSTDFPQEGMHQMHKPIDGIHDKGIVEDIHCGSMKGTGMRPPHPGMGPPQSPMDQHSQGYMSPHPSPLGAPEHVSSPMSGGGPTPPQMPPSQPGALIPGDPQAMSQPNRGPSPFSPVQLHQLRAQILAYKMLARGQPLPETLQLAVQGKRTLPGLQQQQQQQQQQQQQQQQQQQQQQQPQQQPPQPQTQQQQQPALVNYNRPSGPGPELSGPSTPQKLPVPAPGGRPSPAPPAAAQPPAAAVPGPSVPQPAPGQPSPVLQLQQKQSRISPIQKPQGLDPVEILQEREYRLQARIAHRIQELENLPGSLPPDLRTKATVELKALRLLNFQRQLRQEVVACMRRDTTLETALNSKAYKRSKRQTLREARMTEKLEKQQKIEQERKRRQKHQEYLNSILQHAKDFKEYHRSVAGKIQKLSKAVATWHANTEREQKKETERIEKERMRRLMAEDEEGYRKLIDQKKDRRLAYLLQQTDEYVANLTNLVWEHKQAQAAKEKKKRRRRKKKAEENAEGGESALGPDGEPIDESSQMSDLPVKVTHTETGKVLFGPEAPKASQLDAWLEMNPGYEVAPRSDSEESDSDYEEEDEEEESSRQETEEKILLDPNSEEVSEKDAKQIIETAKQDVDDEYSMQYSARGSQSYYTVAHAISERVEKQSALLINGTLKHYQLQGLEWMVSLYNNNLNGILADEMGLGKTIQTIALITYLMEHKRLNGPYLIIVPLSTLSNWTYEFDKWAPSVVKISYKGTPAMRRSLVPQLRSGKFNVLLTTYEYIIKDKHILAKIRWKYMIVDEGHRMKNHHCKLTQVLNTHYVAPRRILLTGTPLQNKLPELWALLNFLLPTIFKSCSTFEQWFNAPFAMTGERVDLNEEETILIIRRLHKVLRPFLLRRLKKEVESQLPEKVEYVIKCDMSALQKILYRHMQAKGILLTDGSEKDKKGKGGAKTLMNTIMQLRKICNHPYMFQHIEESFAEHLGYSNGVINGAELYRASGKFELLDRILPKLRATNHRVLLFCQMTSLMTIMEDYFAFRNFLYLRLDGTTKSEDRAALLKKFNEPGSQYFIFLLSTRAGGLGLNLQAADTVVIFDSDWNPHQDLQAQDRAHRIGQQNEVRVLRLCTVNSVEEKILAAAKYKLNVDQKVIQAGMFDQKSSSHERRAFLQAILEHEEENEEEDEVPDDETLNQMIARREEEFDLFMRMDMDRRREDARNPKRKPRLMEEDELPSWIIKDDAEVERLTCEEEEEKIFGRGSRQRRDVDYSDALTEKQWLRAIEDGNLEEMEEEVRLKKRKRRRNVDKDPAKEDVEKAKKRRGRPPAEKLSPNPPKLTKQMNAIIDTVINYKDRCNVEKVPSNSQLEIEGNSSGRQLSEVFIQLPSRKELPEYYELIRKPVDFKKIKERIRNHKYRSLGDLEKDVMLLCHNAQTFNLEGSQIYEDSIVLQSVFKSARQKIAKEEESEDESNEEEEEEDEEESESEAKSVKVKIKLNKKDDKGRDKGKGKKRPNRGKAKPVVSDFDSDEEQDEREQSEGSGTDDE
SMARCA4, sequence (P51532 whole entry): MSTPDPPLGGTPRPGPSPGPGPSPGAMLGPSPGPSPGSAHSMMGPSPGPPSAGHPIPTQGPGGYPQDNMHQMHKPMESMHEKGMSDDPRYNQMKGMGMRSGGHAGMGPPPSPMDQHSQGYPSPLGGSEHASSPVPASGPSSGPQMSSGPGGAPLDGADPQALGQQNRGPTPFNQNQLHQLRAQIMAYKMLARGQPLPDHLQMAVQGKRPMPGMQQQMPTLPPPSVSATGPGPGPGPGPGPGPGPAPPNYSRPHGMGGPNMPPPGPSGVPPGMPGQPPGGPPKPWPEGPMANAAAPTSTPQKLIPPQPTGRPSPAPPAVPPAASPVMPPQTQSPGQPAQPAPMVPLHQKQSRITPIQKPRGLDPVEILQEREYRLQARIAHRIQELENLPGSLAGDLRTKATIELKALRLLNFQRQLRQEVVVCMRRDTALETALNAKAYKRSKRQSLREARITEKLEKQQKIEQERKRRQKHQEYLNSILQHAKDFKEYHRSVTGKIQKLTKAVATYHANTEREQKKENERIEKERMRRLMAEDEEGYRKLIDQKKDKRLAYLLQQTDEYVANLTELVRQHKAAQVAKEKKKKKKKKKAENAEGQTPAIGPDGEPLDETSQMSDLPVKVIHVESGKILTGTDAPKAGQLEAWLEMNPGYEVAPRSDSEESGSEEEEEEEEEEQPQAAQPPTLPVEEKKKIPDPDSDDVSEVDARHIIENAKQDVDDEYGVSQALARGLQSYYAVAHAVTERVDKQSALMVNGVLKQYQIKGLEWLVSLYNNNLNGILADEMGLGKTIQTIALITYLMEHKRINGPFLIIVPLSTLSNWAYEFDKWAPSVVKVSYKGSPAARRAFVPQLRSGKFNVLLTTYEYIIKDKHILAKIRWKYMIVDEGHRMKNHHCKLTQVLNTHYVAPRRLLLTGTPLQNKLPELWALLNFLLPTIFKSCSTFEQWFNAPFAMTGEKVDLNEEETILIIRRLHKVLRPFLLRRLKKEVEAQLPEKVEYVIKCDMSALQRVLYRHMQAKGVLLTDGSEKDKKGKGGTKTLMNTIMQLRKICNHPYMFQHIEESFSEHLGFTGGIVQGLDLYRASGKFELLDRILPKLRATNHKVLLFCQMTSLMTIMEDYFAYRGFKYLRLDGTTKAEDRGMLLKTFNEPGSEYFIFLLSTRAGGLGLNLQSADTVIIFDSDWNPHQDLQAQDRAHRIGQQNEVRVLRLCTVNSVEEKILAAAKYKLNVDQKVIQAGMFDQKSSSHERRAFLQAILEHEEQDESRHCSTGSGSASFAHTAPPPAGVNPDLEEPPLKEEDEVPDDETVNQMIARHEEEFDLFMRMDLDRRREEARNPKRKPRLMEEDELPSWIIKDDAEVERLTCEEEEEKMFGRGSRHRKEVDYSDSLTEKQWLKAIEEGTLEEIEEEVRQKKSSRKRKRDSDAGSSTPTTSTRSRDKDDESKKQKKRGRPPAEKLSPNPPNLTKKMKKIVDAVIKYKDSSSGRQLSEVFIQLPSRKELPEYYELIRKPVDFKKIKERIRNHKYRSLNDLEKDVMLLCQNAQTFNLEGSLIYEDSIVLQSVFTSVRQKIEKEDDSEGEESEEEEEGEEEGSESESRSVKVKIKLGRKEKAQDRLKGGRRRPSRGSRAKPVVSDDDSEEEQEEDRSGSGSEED

Row | DC50 (SMARCA4; 6 hrs incubation) [nM] | Dmax (SMARCA4; [1]) [%] | DC50 (SMARCA2) [nM] | Dmax (SMARCA2) [%] | SMARC A4 HT1080 HiBit Dmax(%) (SMARCA4; 6 hrs incubation) | SMARC A2 HT1080 HiBit Dmax (%) (SMARCA2) | Dmax (SMARCA4; HT-1080, read-out: SMARC A4 HT1080 HiBit Dmax(%), HT1080 CRISPR knock-in cells, 6 hrs incubation) [%] | SMILES
1 | < 100 | 70 to 90 | < 100 | 70 to 90 |  |  |  | Cc1cc(C(C(=O)N2C[C@H](O)C[C@H]2C(=O)N[C@@H](CN2CCC(c3cccc4c3C(C)(C)c3nc(=O)c5c(Cl)cccc5n3-4)CC2)c2ccc(-c3scnc3C)cc2)C(C)C)on1 (stereo partly drawn) [Compound B153, (2S,4R)-N-((R)-2-(4-(4-chloro-7,7-dimethyl-5-oxo-5,7-dihydroindolo[1,2-a]quinazolin-8-yl)piperidin-1-yl)-1-(4-(4-methylthiazol-5-yl)phenyl)ethyl)-4-hydroxy-1-(3-methyl-2-(3-methylisoxazol-5-yl)butanoyl)pyrrolidine-2-carboxamide]
2 | < 100 |  | < 100 |  | B (B (70-90% degradation)) | A (A (>90% degradation)) |  | Cc1cc(C(C(=O)N2C[C@H](O)C[C@H]2C(=O)N[C@@H](CN2CCC(c3cccc4c3C(C)(C)c3nc(=O)c5c(Cl)cccc5n3-4)CC2)c2ccc(-c3scnc3C)cc2)C(C)C)on1 (stereo partly drawn) [Compound B154, (2S,4R)-N-((R)-2-(4-(4-chloro-7,7-dimethyl-5-oxo-5,7-dihydroindolo[1,2-a]quinazolin-8-yl)piperidin-1-yl)-1-(4-(4-methylthiazol-5-yl)phenyl)ethyl)-4-hydroxy-1-(3-methyl-2-(3-methylisoxazol-5-yl)butanoyl)pyrrolidine-2-carboxamide]
3 | < 100 |  | < 100 |  | C (C (50-69% degradation)) | A (A (>90% degradation)) |  | Cc1ncsc1-c1ccc([C@H](C)NC(=O)[C@@H]2C[C@@H](O)CN2C(=O)[C@H](C(C)C)n2cc(C3CCC(c4cccc5c4C(C)(C)c4nc(=O)c6c(Cl)cccc6n4-5)CC3)nn2)cc1 (stereo partly drawn) [Compound B161, (2S,4R)-1-((S)-2-(4-(4-(4-chloro-7,7-dimethyl-5-oxo-5,7-dihydroindolo[1,2-a]quinazolin-8-yl)cyclohexyl)-1H-1,2,3-triazol-1-yl)-3-methylbutanoyl)-4-hydroxy-N-((S)-1-(4-(4-methylthiazol-5-yl)phenyl)ethyl)pyrrolidine-2-carboxamide]
4 | < 100 |  | < 100 |  | C (C (50-69% degradation)) | A (A (>90% degradation)) |  | Cc1ncsc1-c1ccc([C@H](C)NC(=O)[C@@H]2C[C@@H](O)CN2C(=O)[C@H](C(C)C)n2cc(C3CCC(c4cccc5c4C(C)(C)c4nc(=O)c6c(Cl)cccc6n4-5)CC3)nn2)cc1 (stereo partly drawn) [Compound B162, (2S,4R)-1-((S)-2-(4-(4-(4-chloro-7,7-dimethyl-5-oxo-5,7-dihydroindolo[1,2-a]quinazolin-8-yl)cyclohexyl)-1H-1,2,3-triazol-1-yl)-3-methylbutanoyl)-4-hydroxy-N-((S)-1-(4-(4-methylthiazol-5-yl)phenyl)ethyl)pyrrolidine-2-carboxamide]

Continued, molecule first:

Row | SMILES | DC50 (SMARCA4; 6 hrs incubation) [nM] | Dmax (SMARCA4; [1]) [%] | DC50 (SMARCA2) [nM] | Dmax (SMARCA2) [%] | SMARC A4 HT1080 HiBit Dmax(%) (SMARCA4; 6 hrs incubation) | SMARC A2 HT1080 HiBit Dmax (%) (SMARCA2) | Dmax (SMARCA4; HT-1080, read-out: SMARC A4 HT1080 HiBit Dmax(%), HT1080 CRISPR knock-in cells, 6 hrs incubation) [%]
5 | Cc1cc(C(C(=O)N2C[C@H](O)C[C@H]2C(=O)N[C@@H](CN2CCC(N3CCC(c4cccc5c4C(C)(C)c4nc(=O)c6c(Cl)cccc6n4-5)CC3)CC2)c2ccc(-c3scnc3C)cc2)C(C)C)on1 (stereo partly drawn) [Compound B155, (2S,4R)-N-((R)-2-(4-(4-chloro-7,7-dimethyl-5-oxo-5,7-dihydroindolo[1,2-a]quinazolin-8-yl)-[1,4'-bipiperidin]-1'-yl)-1-(4-(4-methylthiazol-5-yl)phenyl)ethyl)-4-hydroxy-1-(3-methyl-2-(3-methylisoxazol-5-yl)butanoyl)pyrrolidine-2-carboxamide] | < 100 | 70 to 90 | < 100 | > 90 |  |  | 
6 | C[C@H](NC(=O)[C@@H]1C[C@@H](O)CN1C(=O)[C@@H](n1cc([C@H]2CC[C@H](CN3CCC(c4ccc5c(c4)-n4c(nc(=O)c6c(Cl)cccc64)C5(C)C)CC3)CC2)nn1)C(C)(C)C)c1ccc(-c2scnc2C#CCN2CCOCC2)cc1 [Compound B156, (2S,4R)-1-((R)-2-(4-((1r,4R)-4-((4-(4-chloro-7,7-dimethyl-5-oxo-5,7-dihydroindolo[1,2-a]quinazolin-10-yl)piperidin-1-yl)methyl)cyclohexyl)-1H-1,2,3-triazol-1-yl)-3,3-dimethylbutanoyl)-4-hydroxy-N-((S)-1-(4-(4-(3-morpholinoprop-1-yn-1-yl)thiazol-5-yl)phenyl)ethyl)pyrrolidine-2-carboxamide] | < 100 | 50 to 69 | < 100 | > 90 |  |  | 
7 | Cc1ncsc1-c1ccc([C@H](CN2CCOCC2)NC(=O)[C@@H]2C[C@@H](O)CN2C(=O)[C@@H](c2cc(O[C@H]3CC[C@H](CN4CCC(c5ccc6c(c5)-n5c(nc(=O)c7c(Cl)cccc75)C6(C)C)CC4)CC3)no2)C(C)C)cc1 [Compound B157, (2S,4R)-1-((R)-2-(3-(((1r,4R)-4-((4-(4-chloro-7,7-dimethyl-5-oxo-5,7-dihydroindolo[1,2-a]quinazolin-10-yl)piperidin-1-yl)methyl)cyclohexyl)oxy)isoxazol-5-yl)-3-methylbutanoyl)-4-hydroxy-N-((R)-1-(4-(4-methylthiazol-5-yl)phenyl)-2-morpholinoethyl)pyrrolidine-2-carboxamide] | < 100 |  | < 100 | > 90 |  |  | > 90
8 | Cc1ncsc1-c1ccc([C@H](CN2CCOCC2)NC(=O)[C@@H]2C[C@@H](O)CN2C(=O)[C@@H](c2cc(O[C@H]3CC[C@H](CN4CCC(c5ccc6c(c5)-n5c(nc(=O)c7c(Cl)cccc75)C65CCCCC5)CC4)CC3)no2)C(C)C)cc1 [Compound B158, (2S,4R)-1-((R)-2-(3-(((11,4R)-4-((4-(4′-chloro-5′-oxo-5′H-spiro[cyclohexane-1,7′-indolo[1,2-a]quinazolin]-10′-yl)piperidin-1-yl)methyl)cyclohexyl)oxy)isoxazol-5-yl)-3-methylbutanoyl)-4-hydroxy-N-((R)-1-(4-(4-methylthiazol-5-yl)phenyl)-2-morpholinoethyl)pyrrolidine-2-carboxamide] | < 100 | > 90 | < 100 | > 90 |  |  | 
9 | Cc1ncsc1-c1ccc(C(CN2CCOCC2)NC(=O)[C@@H]2C[C@@H](O)CN2C(=O)[C@@H](c2cc(O[C@H]3CC[C@H](CN4CCN(c5ccc6c(c5)-n5c(nc(=O)c7c(Cl)cccc75)C6(C)C)CC4)CC3)no2)C(C)C)cc1 (stereo partly drawn) [Compound B163, (2S,4R)-1-((R)-2-(3-(((11,4R)-4-((4-(4-chloro-7,7-dimethyl-5-oxo-5,7-dihydroindolo[1,2-a]quinazolin-10-yl)piperazin-1-yl)methyl)cyclohexyl)oxy)isoxazol-5-yl)-3-methylbutanoyl)-4-hydroxy-N-((R)-1-(4-(4-methylthiazol-5-yl)phenyl)-2-morpholinoethyl)pyrrolidine-2-carboxamide] | < 100 | > 90 | < 100 | > 90 |  |  | 
10 | Cc1nc(C)c(-c2ccc([C@H](C)NC(=O)[C@@H]3C[C@@H](O)CN3C(=O)[C@@H](n3cc([C@H]4CC[C@H](CN5CCC(c6ccc7c(c6)-n6c(nc(=O)c8c(Cl)cccc86)C7(C)C)CC5)CC4)nn3)C(C)(C)C)cc2)s1 [Compound B164, (2S,4R)-1-((S)-2-(4-((1r,4S)-4-((4-(4-chloro-7,7-dimethyl-5-oxo-5,7-dihydroindolo[1,2-a]quinazolin-10-yl)piperidin-1-yl)methyl)cyclohexyl)-1H-1,2,3-triazol-1-yl)-3,3-dimethylbutanoyl)-N-((S)-1-(4-(2,4-dimethylthiazol-5-yl)phenyl)ethyl)-4-hydroxypyrrolidine-2-carboxamide] | < 100 | 70 to 90 | < 100 | > 90 |  |  | 
11 | Cc1cc(C(C(=O)N2C[C@H](O)C[C@H]2C(=O)N[C@@H](CCN2CCC(c3cccc4c3C(C)(C)c3nc(=O)c5c(Cl)cccc5n3-4)CC2)c2ccc(-c3scnc3C)cc2)C(C)C)on1 (stereo partly drawn) [Compound B165, (2S,4R)-N-((S)-3-(4-(4-chloro-7,7-dimethyl-5-oxo-5,7-dihydroindolo[1,2-a]quinazolin-8-yl)piperidin-1-yl)-1-(4-(4-methylthiazol-5-yl)phenyl)propyl)-4-hydroxy-1-(3-methyl-2-(3-methylisoxazol-5-yl)butanoyl)pyrrolidine-2-carboxamide] | 100 to 500 |  | 100 to 500 |  | C (C (50-69% degradation)) | C (C (50-69% degradation)) | 
12 | Cc1cc(C(C(=O)N2C[C@H](O)C[C@H]2C(=O)N[C@@H](CCN2CCC(c3cccc4c3C(C)(C)c3nc(=O)c5c(Cl)cccc5n3-4)CC2)c2ccc(-c3scnc3C)cc2)C(C)C)on1 (stereo partly drawn) [Compound B166, (2S,4R)-N-((S)-3-(4-(4-chloro-7,7-dimethyl-5-oxo-5,7-dihydroindolo[1,2-a]quinazolin-8-yl)piperidin-1-yl)-1-(4-(4-methylthiazol-5-yl)phenyl)propyl)-4-hydroxy-1-(3-methyl-2-(3-methylisoxazol-5-yl)butanoyl)pyrrolidine-2-carboxamide] | 100 to 500 |  | 100 to 500 |  | B (B (70-90% degradation)) | B (B (70-90% degradation)) | 
